Assay results: patent publication US11884647B2, “Compounds and methods for targeting pathogenic blood vessels” (THE REGENTS OF THE UNIVERSITY OF CALIFORNIA, priority 2019, dated 2024)

What follows are compounds tested on tumor endothelial cells (LL/2 lung cancer tumor) (assay: Lung LL2 ex vivo model of tumor angiogenesis). Settings: Lung LL2 ex vivo; Conc. 20 μm; (24 hrs).
Assay type: cell-based, mouse
Summary of the method: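 Mouse LL2 tumor fragments (~0.5×0.5×0.3 mm) embedded in Matrigel and grown in endothelial growth medium at 37° C until endothelial outgrowth (about 4 days) before drug treatment. About 48 h after drug addition, stained 10 min with fluorescein diacetate/propidium iodide; live (green) and dead (red) cells imaged at 2× with fixed channel settings.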

Question: With CCCCCCCCCCOc1ccc(S(=O)(=O)c2cnc3ccc([S+](C)[O-])cc3c2N2CCC(N3CCN(CCO)CC3)CC2)cc1F (stereo not shown) [compound 291, 2-(4-(1-(3-((4-(decyloxy)-3-fluorophenyl)sulfonyl)-6-(methylsulfinyl)quinolin-4-yl)piperidin-4-yl)piperazin-1-yl)ethan-1-ol] as the compound, how does the “Cell death (24 hrs)” value read?
Answer: Its value is 10%.

Question: What about the “Morphology observations (24 hrs)” value of the same compound?
Answer: Its value is “* (50% or less of cells vesicularize in cell shape)”.

Same assay, conditions: Lung LL2 ex vivo; Conc. 40 μm; (rim)

Question: Which “Cell death (rim)” value does the source give for CCCCCCCOc1ccc(S(=O)(=O)c2cnc3ccc(SC)cc3c2N2CCC(N3CCC(O)CC3)CC2)cc1 [compound 223, 1′-(3-((4-(heptyloxy)phenyl)sulfonyl)-6-(methylthio)quinolin-4-yl)-[1,4′-bipiperidin]-4-ol] here?
Answer: Its value is 30%.

Same assay, conditions: Mus musculus, Endothelial cell, 48 h, read-out: Cell death

Question: With CCOC(=O)c1ccc2ncc(S(=O)(=O)c3ccc(OC)cc3)c(NN3CCN(C)CC3)c2c1 [compound 225, ethyl 3-((4-methoxyphenyl)sulfonyl)-4-((4-methylpiperazin-1-yl)amino)quinoline-6-carboxylate] as the compound, how does the cytotoxicity at 40 µM read?
Answer: The cytotoxicity at 40 µM was 40%.

Question: With CCCCOc1ccc(S(=O)(=O)c2cnc3ccc(C(=O)OCC)cc3c2N2CCC(N3CCC(CO)CC3)CC2)cc1 [compound 178, ethyl 3-((4-butoxyphenyl)sulfonyl)-4-(4-(hydroxymethyl)-[1,4′-bipiperidin]-1′-yl)quinoline-6-carboxylate] as the compound, how does the cytotoxicity at 40 µM read?
Answer: Its cytotoxicity at 40 µM is 100%.

Question: With CCCCCCCCCCCCCCOc1ccc(S(=O)(=O)c2cnc3ccc([S+](C)[O-])cc3c2N2CCC(N3CCC(N4CCCCC4)CC3)CC2)cc1F (stereo not shown) [compound 366, 4-([1,4′:1′,4″-terpiperidin]-1″-yl)-3-((3-fluoro-4-(tetradecyloxy)phenyl)sulfonyl)-6-(methylsulfinyl)quinoline] as the compound, how does the cytotoxicity at 20 µM read?
Answer: The cytotoxicity at 20 µM was 10%.

Question: For CCCCCCCCCCOc1ccc(S(=O)(=O)c2cnc3ccc([S+](C)[O-])cc3c2N2CCC(N3CCCN(C)CC3)CC2)cc1 (stereo not shown) [compound 267, 3-((4-(decyloxy)phenyl)sulfonyl)-4-(4-(4-methyl-1,4-diazepan-1-yl)piperidin-1-yl)-6-(methylsulfinyl)quinoline], which cytotoxicity at 10 µM is on record?
Answer: The cytotoxicity at 10 µM was 5%.

Question: CCCCOc1ccc(S(=O)(=O)c2cnc3ccc(SC)cc3c2N2CCC(N3CCN(c4ccc(F)cc4)CC3)CC2)cc1 [compound 233, 3-((4-butoxyphenyl)sulfonyl)-4-(4-(4-(4-fluorophenyl)piperazin-1-yl)piperidin-1-yl)-6-(methylthio)quinoline] was tested. Which cytotoxicity at 40 µM did it give?
Answer: The cytotoxicity at 40 µM was 5%.

Each compound was assayed on tumor endothelial cells (CT26.CL25 colon cancer tumor) (assay: Colon CT26 ex vivo model of tumor angiogenesis). Settings: Mus musculus, CT26, 48 h, read-out: Cell death.
Assay type: cell-based
Method: This example describes a procedure to prepare a primary tumor angiogenesis model for assessing the efficacy of anti-cancer candidate agents.
1. The day before the experiment, spray all necessary tools with 70% ethanol and sterilize them under UV light overnight, including blade, dissecting and micro-dissecting scissors and […]. Place 24-well dishes at 4° C. to pre-chill plates and thaw Matrigel 24 hours before tumor dissection.
2. Spray 70% ethanol on working bench. Prepare two sterile petri dishes with 10 mL sterile PBS. Steps 3 and 4 are for mouse tumor models. For fresh human tumor, directly go to step 5.
3. Euthanize the tumor-bearing mice. Spray 70% ethanol on the mouse and remove the tumor using sterilized dissecting tools (avoid the fur). Rinse the tumor in petri dish with sterile PBS to remove ethanol and fur. Transfer the tumor to a new petri dish with PBS for dissection. Place the dish on ice.
4. Using pre-chilled sterile pipet tips to seed regular Matrigel in 24 well plates on ice. Matrigel (30 μL) is dropped in the middle of each well without touching the edge of the well (avoid introducing bubbles if possible).
5. Cut the tumor in halves using the sterile blade. Identify and isolate healthy tumor tissue that is not necrotic and is within the tumor capsule. Cut the healthy tumor tissue into small pieces. For instance, a suitable size for the tumor tissue is 0.5 mm (H)×0.5 mm (L)×0.3 mm (D) with a total volume of 0.075 mm^3.
6. Gently transfer and embed each tumor piece in the Matrigel drop in the 24-well plate. Place the embedded piece in the bottom and middle of each Matrigel drop. Keep the plate on ice all the time.
7. After seeding the tumor pieces, plates are incubated in a 37° C. cell culture incubator without medium for 10 minutes in order for the Matrigel to solidify.
8. Endothelial Growth Medium (0.5 mL) is added to each well and incubated at 37° C. with 5% CO2. Wait until the new endothelial cells have grown out of the tumor or are larger than 3 mm in diameter until treatment. This usually takes 4 days for the LL2 Lewis lung cancer model and 7 days for the CT26 colon cancer model. For human tumor models, the growth time is typically 2-3 weeks, depending on the tumor type. Media is changed every 4 days during prolonged culture. Typically, when the tumor tissue grows to 2 mm in diameter, it is good for drug testing. A size of about 3 mm in diameter can make visualization easier.
9. When the assay is ready to be analyzed for cell death (e.g., 48 hours after drug addition), prepare the dye mixture by mixing 6 μL of green dye to stain live cells (5 mg/mL Fluorescein diacetate or FDA in DMSO) with 30 μL of red dye (2.5 mg/mL Propidium iodide or PI in PBS) to stain dead cells in an Eppendorf tube. The FDA dye needs to be stored frozen in a −20° C. freezer because it has a labile ester bond.
10. Add 1 μL of the dye mixture to each well of the 24-well dish. It is usually performed one 24-well dish at a time given the amount of time needed to take pictures (the green dye is not as stable in the cells in the long term).
11. Gently rock the dish a few times to mix the dye with the media in the wells and incubate the dish at 37° C. for 10 min (too long incubation can make the green signal too intense).
12. Wash each well with 0.5 mL of sterile PBS and then add 0.5 mL of phenol red free SFM to each well. Alternatively 0.5 mL of regular Endothelial Cell Growth Media can be added to each well if this well needs to be continuously maintained after the experiment.
13. Look through all wells on an inverted microscope using the 2× objective lens to observe morphological changes.
14. Taking pictures in the red and green channels would allow not only the recording of the result but also more accurate quantitation of the result. To take pictures for all the wells, first pick a well that has robust red and green signals. […]

Question: For CCOC(=O)c1ccc2ncc(S(=O)(=O)c3ccc(CC)cc3)c(N3CCCN(CCN(CC)CC)CC3)c2c1 [compound 131, ethyl 4-(4-(2-(diethylamino)ethyl)-1,4-diazepan-1-yl)-3-((4-ethylphenyl)sulfonyl)quinoline-6-carboxylate], which cytotoxicity at 40 µM is on record?
Answer: The cytotoxicity at 40 µM was 50%.

Question: For CCc1ccc(S(=O)(=O)c2cnc3ccc(OC(F)(F)F)cc3c2N2CCC(O)(c3ccc4c(c3)OCO4)CC2)cc1 [compound 147, 4-(benzo[d][1,3]dioxol-5-yl)-1-(3-((4-ethylphenyl)sulfonyl)-6-(trifluoromethoxy)quinolin-4-yl)piperidin-4-ol], which cytotoxicity at 40 µM is on record?
Answer: The cytotoxicity at 40 µM was 0%.

Question: For CCc1ccc(S(=O)(=O)c2cnc3ccc(OC(F)(F)F)cc3c2N2CCC(O)(c3ccc(OC)cc3)CC2)cc1 [compound 145, 1-(3-((4-ethylphenyl)sulfonyl)-6-(trifluoromethoxy)quinolin-4-yl)-4-(4-methoxyphenyl)piperidin-4-ol], which cytotoxicity at 40 µM is on record?
Answer: Its cytotoxicity at 40 µM is 30%.

Question: How did the cytotoxicity at 40 µM turn out when CCOC(=O)c1ccc2ncc(S(=O)(=O)c3ccc(CC)cc3)c(N3CCC(O)(c4ccc(CC)cc4)CC3)c2c1 [compound 128, ethyl 4-(4-(4-ethylphenyl)-4-hydroxypiperidin-1-yl)-3-((4-ethylphenyl)sulfonyl)quinoline-6-carboxylate] was run?
Answer: Its cytotoxicity at 40 µM is 10%.

Question: CCc1ccc(S(=O)(=O)c2cnc3ccc(OC(F)(F)F)cc3c2N2CCC(O)(c3cccc(OC)c3)CC2)cc1 [compound 146, 1-(3-((4-ethylphenyl)sulfonyl)-6-(trifluoromethoxy)quinolin-4-yl)-4-(3-methoxyphenyl)piperidin-4-ol] was tested. Which cytotoxicity at 40 µM did it give?
Answer: Its cytotoxicity at 40 µM is 0%.

Question: For CN1CCCN(c2c(S(=O)(=O)c3ccc([N+](=O)[O-])cc3)cnc3ccc(OC(F)(F)F)cc23)CC1 [compound 60, 4-(4-methyl-1,4-diazepan-1-yl)-3-((4-nitrophenyl)sulfonyl)-6-(trifluoromethoxy)quinoline], which cytotoxicity at 40 µM is on record?
Answer: Its cytotoxicity at 40 µM is 5%.

Question: With CCOC(=O)c1ccc2ncc(S(=O)(=O)c3ccc(CC)cc3)c(N3CCC(O)(c4cccc(OC)c4)CC3)c2c1 [compound 149, ethyl 3-((4-ethylphenyl)sulfonyl)-4-(4-hydroxy-4-(3-methoxyphenyl)piperidin-1-yl)quinoline-6-carboxylate] as the compound, how does the cytotoxicity at 40 µM read?
Answer: Its cytotoxicity at 40 µM is 20%.

Question: For COc1ccc(S(=O)(=O)c2cnc3ccc(OC(F)(F)F)cc3c2N2CCC(O)(c3cccc(OC)c3)CC2)cc1 [compound 150, 4-(3-methoxyphenyl)-1-(3-((4-methoxyphenyl)sulfonyl)-6-(trifluoromethoxy)quinolin-4-yl)piperidin-4-ol], which cytotoxicity at 40 µM is on record?
Answer: The cytotoxicity at 40 µM was 10%.

Question: Which cytotoxicity at 40 µM does the source give for CCOC(=O)c1ccc2ncc(S(=O)(=O)c3ccc(CC)cc3)c(N3CCCC(O)C3)c2c1 (stereo not shown) [compound 135, ethyl 3-((4-ethylphenyl)sulfonyl)-4-(3-hydroxypiperidin-1-yl)quinoline-6-carboxylate] here?
Answer: Its cytotoxicity at 40 µM is 30%.

Question: CCOC(=O)c1ccc2ncc(S(=O)(=O)c3ccc(OC)cc3)c(N3CCCC(O)C3)c2c1 (stereo not shown) [compound 137, ethyl 4-(3-hydroxypiperidin-1-yl)-3-((4-methoxyphenyl)sulfonyl)quinoline-6-carboxylate] was tested. Which cytotoxicity at 40 µM did it give?
Answer: Its cytotoxicity at 40 µM is 40%.

Question: How did the cytotoxicity at 40 µM turn out when CCCCOc1ccc2ncc(S(=O)(=O)c3ccc(OC)c(OC)c3)c(N(CC)CC)c2c1 [compound 123, 6-butoxy-3-((3,4-dimethoxyphenyl)sulfonyl)-N,N-diethylquinolin-4-amine] was run?
Answer: Its cytotoxicity at 40 µM is 20%.

Question: Which cytotoxicity at 40 µM does the source give for CCOC(=O)c1ccc2ncc(S(=O)(=O)c3ccc(OC)cc3)c(N3CCC(N4CCCCC4)CC3)c2c1 [compound 136, ethyl 4-([1,4′-bipiperidin]-1′-yl)-3-((4-methoxyphenyl)sulfonyl)quinoline-6-carboxylate] here?
Answer: Its cytotoxicity at 40 µM is 30%.

Question: CCc1ccc(C2(O)CCN(c3c(S(=O)(=O)c4ccc(OC)cc4)cnc4ccc(OC(F)(F)F)cc34)CC2)cc1 [compound 129, 4-(4-ethylphenyl)-1-(3-((4-methoxyphenyl)sulfonyl)-6-(trifluoromethoxy)quinolin-4-yl)piperidin-4-ol] was tested. Which cytotoxicity at 40 µM did it give?
Answer: The cytotoxicity at 40 µM was 0%.

Question: For CCOC(=O)c1ccc2ncc(S(=O)(=O)c3ccc(OC)cc3)c(N3CCCN(C)CC3)c2c1 [compound 144, ethyl 3-((4-methoxyphenyl)sulfonyl)-4-(4-methyl-1,4-diazepan-1-yl)quinoline-6-carboxylate], which cytotoxicity at 40 µM is on record?
Answer: The cytotoxicity at 40 µM was 30%.

Question: Which cytotoxicity at 40 µM does the source give for CCOC(=O)c1ccc2ncc(S(=O)(=O)c3ccc(OC)cc3)c(N3CCC(N4CCC(O)CC4)CC3)c2c1 [compound 138, ethyl 4-(4-hydroxy-[1,4′-bipiperidin]-1′-yl)-3-((4-methoxyphenyl)sulfonyl)quinoline-6-carboxylate] here?
Answer: The cytotoxicity at 40 µM was 20%.

Question: How did the cytotoxicity at 40 µM turn out when COc1ccc(S(=O)(=O)c2cnc3ccc(SC)cc3c2N2CCC(N3CCC(O)CC3)CC2)cc1OC [compound 153, 1′-(3-((3,4-dimethoxyphenyl)sulfonyl)-6-(methylthio)quinolin-4-yl)-[1,4′-bipiperidin]-4-ol] was run?
Answer: The cytotoxicity at 40 µM was 20%.

Question: With CCCCN(CCCC)c1c(S(=O)(=O)c2ccc(OC)c(OC)c2)cnc2ccc(SC)cc12 [compound 124, N,N-dibutyl-3-((3,4-dimethoxyphenyl)sulfonyl)-6-(methylthio)quinolin-4-amine] as the compound, how does the cytotoxicity at 40 µM read?
Answer: The cytotoxicity at 40 µM was 20%.
